Where a name gives a salt, the structure may show the parent alone.

The values below come from PMC11722180, “Structure–Activity Relationship Studies of Tetracyclic Pyrrolocarbazoles Inhibiting Heterotetrameric Protein Kinase CK2” (Molecules, 2024).

Assay [1] deals with T1, CK2α/CK2β interaction (human CK2α1–335, human CK2β1–193) (Homo sapiens, UniProt P68400).
T1 construct: human CK2α^1–335; made in house
T1 sequence (P68400 1-335): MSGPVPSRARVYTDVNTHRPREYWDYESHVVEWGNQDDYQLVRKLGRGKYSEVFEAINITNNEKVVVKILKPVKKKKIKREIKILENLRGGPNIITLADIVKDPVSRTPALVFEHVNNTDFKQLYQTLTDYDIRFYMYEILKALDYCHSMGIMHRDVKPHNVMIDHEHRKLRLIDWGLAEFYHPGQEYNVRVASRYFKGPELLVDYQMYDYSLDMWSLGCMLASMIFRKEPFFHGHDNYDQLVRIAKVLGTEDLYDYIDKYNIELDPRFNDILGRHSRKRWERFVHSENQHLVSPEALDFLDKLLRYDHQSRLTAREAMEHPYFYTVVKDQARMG
The assay is described as follows: Microscale thermophoresis (MST) assay of the CK2α/CK2β subunit interaction. It is filed as binding. As to conditions: for Ki / Inhibition of CK2α/CK2β Interaction Ki: MST, global analysis, KD′ = KD [1 + (ccompound/Ki)], n.s. = KD′ not significantly different from KD; for Ki: read-out: Inhibition of CK2α/CK2β Interaction Ki. As for the experimental part:
A microscale thermophoresis (MST) assay was used to determine the interaction of the CK2α and CK2β subunits. In this assay, a constant concentration of the fluorescently labeled CK2β subunit was added to increasing concentrations of the CK2α subunit and the thermophoretic shift was recorded, respectively. […] The same experiment was performed in the presence of 20, 50, or 100 µM of the test compounds (see Table 1). An increased KD′ value in the presence of the test compounds was evaluated as the inhibition of the association of the CK2α and CK2β subunits. The increased KD′ value was then transformed together with the employed concentration of the test compound into the Ki value for the inhibition of the CK2α/CK2β association (formula see Supporting Information).
The compounds were investigated at a final concentration of 20, 50, or 100 µM. […] Data analysis and statistical evaluation were conducted with GraphPad Prism v.6 for Windows (GraphPad Software, La Jolla, CA, USA, www.graphpad.com).

For another assay, the system named is CK2. The conditions noted are these: cited from earlier work.

For `CCOC(=O)[C@H]1c2[nH]c3ccccc3c2[C@H](c2cc(OC)c(OC)c(OC)c2)[C@@H]2C(=O)NC(=O)[C@@H]21` (racemic) [(±)-9a, Ethyl (3aRS,4SR,10RS,10aRS)-1,3-dioxo-10-(3,4,5-trimethoxyphenyl9a)-1,2,3,3a,4,5,10,10a-octahydropyrrolo[3,4-b]carbazole-4-carboxylate], in assay [1], the Kd (commonly a measure of binding affinity in units of concentration) was found to be 59 ± 25 nM and the Ki was determined as 32000 nM.
Consider `CCOC(=O)[C@@H]1c2[nH]c3ccccc3c2[C@@H](c2cc(OC)c(OC)c(OC)c2)[C@H]2C(=O)N(C)C(=O)[C@H]21` (racemic) [(±)-9b, Ethyl (3aRS,4SR,10RS,10aRS)-2-methyl-1,3-dioxo-10-(3,4,5-trimethoxyphenyl)-1,2,3,3a,4,5,10,10a-octahydropyrrolo[3,4-b]carbazole-4-carboxylate], for which, in assay [1], the Kd came to 14 ± 6 nM and the “Inhibition of CK2α/CK2β Interaction Ki” value is “n.s”.
Consider `COc1cc([C@@H]2c3c([nH]c4ccccc34)[C@@H](C(=O)O)[C@@H]3C(=O)NC(=O)[C@H]23)cc(OC)c1OC` (racemic) [(±)-10, (3aRS,4SR,10RS,10aRS)-1,3-Dioxo-10-(3,4,5-trimethoxyphenyl)-1,2,3,3a,4,5,10,10a-octahydropyrrolo[3,4-b]carbazole-4-carboxylic acid], for which, in assay [1], the Kd amounted to 758 ± 338 nM and the Ki is 1900 nM.
Consider `CNC(=O)[C@@H]1c2[nH]c3ccccc3c2[C@@H](c2cc(OC)c(OC)c(OC)c2)[C@H]2C(=O)NC(=O)[C@H]21` (racemic) [(±)-11, (3aRS,4SR,10RS,10aRS)-N-Methyl-1,3-dioxo-10-(3,4,5-trimethoxyphenyl)-1,2,3,3a,4,5,10,10a-octahydropyrrolo[3,4-b]carbazole-4-carboxamide], for which, in assay [1], binding was characterised by a dissociation constant (Kd) of 132 ± 43 nM and the Ki is 6000 nM.
The corresponding values for `COc1cc([C@@H]2c3c([nH]c4ccccc34)[C@@H](C(=O)NCc3ccccc3)[C@@H]3C(=O)NC(=O)[C@H]23)cc(OC)c1OC` (racemic) [(±)-12, (3aRS,4SR,10RS,10aRS)-N-Benzyl-1,3-dioxo-10-(3,4,5-trimethoxyphenyl)-1,2,3,3a,4,5,10,10a-octahydropyrrolo[3,4-b]carbazole-4-carboxamide] are 62 ± 19 nM and 14000 nM.
In the case of `COc1cc([C@@H]2c3c([nH]c4ccccc34)[C@@H](C(=O)NCc3ccc(Cl)cc3)[C@@H]3C(=O)NC(=O)[C@H]23)cc(OC)c1OC` (racemic) [(±)-13, (3aRS,4SR,10RS,10aRS)-N-(4-Chlorobenzyl)-1,3-dioxo-10-(3,4,5-trimethoxyphenyl)-1,2,3,3a,4,5,10,10a-octahydropyrrolo[3,4-b]carbazole-4-carboxamide], in assay [1], binding was characterised by a dissociation constant (Kd) of 17 ± 3 nM and the “Inhibition of CK2α/CK2β Interaction Ki” value is recorded as “n.s”.
On to `COc1cc([C@@H]2c3c([nH]c4ccccc34)[C@@H](C(=O)NCCc3c[nH]c4ccccc34)[C@@H]3C(=O)NC(=O)[C@H]23)cc(OC)c1OC` (racemic) [(±)-14, (3aRS,4SR,10RS,10aRS)-N-[2-(Indol-3-yl)ethyl]-1,3-dioxo-10-(3,4,5-trimethoxyphenyl)-1,2,3,3a,4,5,10,10a-octahydropyrrolo[3,4-b]carbazole-4-carboxamide], for which, in assay [1], binding was characterised by a dissociation constant (Kd) of 158 ± 17 nM and the Ki is 3800 nM.
With `COc1cc([C@@H]2c3c([nH]c4ccccc34)[C@@H](C(=O)Nc3cccnc3)[C@@H]3C(=O)NC(=O)[C@H]23)cc(OC)c1OC` (racemic) [(±)-15, (3aRS,4SR,10RS,10aRS)-1,3-Dioxo-N-(pyridin-3-yl)-10-(3,4,5-trimethoxyphenyl)-1,2,3,3a,4,5,10,10a-octahydropyrrolo[3,4-b]carbazole-4-carboxamide], in assay [1], the Kd came out at 89 ± 13 nM and the Ki was determined as 7400 nM.
For `COc1cc([C@@H]2c3c([nH]c4ccccc34)[C@@H](C(=O)N3CCCCC3)[C@@H]3C(=O)NC(=O)[C@H]23)cc(OC)c1OC` (racemic) [(±)-16, (3aRS,4SR,10RS,10aRS)-4-[(Piperidin-1-yl)carbonyl]-10-(3,4,5-trimethoxyphenyl)-4,5,10,10a-tetrahydropyrrolo[3,4-b]carbazole-1,3(2H,3aH)-dione], in assay [1], binding was put at a Kd of 72 ± 12 nM and the Ki worked out at 9700 nM.
For the compound `COc1cc([C@@H]2c3c([nH]c4ccccc34)[C@@H](C(=O)Nc3nc4ccccc4[nH]3)[C@@H]3C(=O)NC(=O)[C@H]23)cc(OC)c1OC` (racemic) [(±)-17, (3aRS,4SR,10RS,10aRS)-N-(1H-Benzimidazol-2-yl)-1,3-dioxo-10-(3,4,5-trimethoxyphenyl)-1,2,3,3a,4,5,10,10a-octahydropyrrolo[3,4-b]carbazole-4-carboxamide], in assay [1], the dissociation constant Kd amounted to 93 ± 13 nM and the Ki came to 7100 nM.
On to `CCOC(=O)[C@@H]1c2[nH]c3ccccc3c2[C@@H](c2ccc([N+](=O)[O-])cc2)[C@H]2C(=O)NC(=O)[C@H]21` (racemic) [(±)-21a, Ethyl (3aRS,4SR,10RS,10aRS)-10-(4-nitrophenyl)-1,3-dioxo-1,2,3,3a,4,5,10,10a-octahydropyrrolo[3,4-b]carbazole-4-carboxylate], for which, in assay [1], binding was put at a Kd of 20 ± 10 nM and the “Inhibition of CK2α/CK2β Interaction Ki” value is on record as “n.s”.
As for `CCOC(=O)[C@H]1c2[nH]c3ccccc3c2[C@H](c2ccc(N)cc2)[C@@H]2C(=O)NC(=O)[C@@H]21` (racemic) [(±)-22a, Ethyl (3aRS,4SR,10RS,10aRS)-10-(4-aminophenyl)-1,3-dioxo-1,2,3,3a,4,5,10,10a-octahydropyrrolo[3,4-b]carbazole-4-carboxylate∙HCl], in assay [1], the Kd is 31 ± 11 nM and the “Inhibition of CK2α/CK2β Interaction Ki” value is given as “n.s”.
In the case of `CCOC(=O)[C@H]1c2[nH]c3ccccc3c2[C@H](c2ccc(N)cc2)[C@@H]2C(=O)N(Cc3ccccc3)C(=O)[C@@H]21` (racemic) [(±)-22c, Ethyl (3aRS,4SR,10RS,10aRS)-10-(4-aminophenyl)-2-benzyl-1,3-dioxo-1,2,3,3a,4,5,10,10a-octahydropyrrolo[3,4-b]carbazole-4-carboxylate∙HCl], in assay [1], the Kd was 25 ± 15 nM and the “Inhibition of CK2α/CK2β Interaction Ki” value was “n.s”. Besides, the “Inhibition of CK2α/CK2β Interaction Ki” value in assay [1] (listed as 22c) is given as “did not result in a significant inhibition”.
For the compound `CCOC(=O)[C@@H]1c2[nH]c3ccccc3c2[C@@H](c2ccc(NC(=O)c3ccc(OC)cc3)cc2)[C@H]2C(=O)N(Cc3ccccc3)C(=O)[C@H]21` (racemic) [(±)-23, Ethyl (3aRS,4SR,10RS,10aRS)-2-benzyl-10-[4-(4-methoxybenzamido)phenyl]-1,3-dioxo-1,2,3,3a,4,5,10,10a-octahydropyrrolo[3,4-b]carbazole-4-carboxylate], binding in assay [1] was characterised by a dissociation constant (Kd) of 24 ± 9 nM. The entries for the “Inhibition of CK2α/CK2β Interaction Ki” value in assay [1] and in assay [1] (listed as 23) were “n.s” and “did not result in a significant inhibition”, respectively.
As to `Cc1ccc(N/C=C2\C(=O)CCc3c2oc2c(Cl)c(Cl)c(O)cc32)cc1` [2a], the IC50 (in general, the midpoint of a concentration-inhibition curve) in the assay on CK2 (ATP competitive, read-out: CK2 inhibition IC50) is 29 nM.
In the case of `COC(=O)[C@H](CO)NC(=O)[C@H]1c2[nH]c3ccccc3c2[C@H](c2cc(OC)c(OC)c(OC)c2)[C@@H]2C(=O)NC(=O)[C@@H]21` [(+)-18a, Methyl N-{[(3aS,4R,10S,10aS)-1,3-dioxo-10-(3,4,5-trimethoxyphenyl)-1,2,3,3a,4,5,10,10a-octahydropyrrolo[3,4-b]carbazol-4-yl]carbonyl}-(S)-serinate], in assay [1], binding was characterised by a dissociation constant (Kd) of 72 ± 2 nM and the Ki turned out to be 9100 nM.
On to `COC(=O)[C@H](CCSC)NC(=O)[C@@H]1c2[nH]c3ccccc3c2[C@@H](c2cc(OC)c(OC)c(OC)c2)[C@H]2C(=O)NC(=O)[C@H]21` [(–)-19b, Methyl N-{[(3aR,4S,10R,10aR)-1,3-dioxo-10-(3,4,5-trimethoxyphenyl)-1,2,3,3a,4,5,10,10a-octahydropyrrolo[3,4-b]carbazol-4-yl]carbonyl}-(S)-methioninate], for which, in assay [1], the Kd came out at 94 ± 24 nM and the Ki is 7700 nM.
For `COC(=O)[C@H](Cc1c[nH]cn1)NC(=O)[C@@H]1c2[nH]c3ccccc3c2[C@@H](c2cc(OC)c(OC)c(OC)c2)[C@H]2C(=O)NC(=O)[C@H]21` [(–)-20b, methyl N-{[(3aR,4S,10R,10aR)-1,3-dioxo-10-(3,4,5-trimethoxyphenyl)-1,2,3,3a,4,5,10,10a-octahydropyrrolo[3,4-b]carbazol-4-yl]carbonyl}-(S)-histidinate], in assay [1], binding was put at a Kd of 29 ± 7 nM and the “Inhibition of CK2α/CK2β Interaction Ki” value is on record as “n.s”.
On to `NCc1cc(Cl)cc(-c2cccc3[nH]ccc23)c1` [CAM187], for which the “Effect on kinase activity of CK2” value with CK2 is “not significantly affected”.
